Data on four compounds can be found in PMC7312375, “A Novel, Pan-PDE Inhibitor Exerts Anti-Fibrotic Effects in Human Lung Fibroblasts via Inhibition of TGF-β Signaling and Activation of cAMP/PKA Signaling” (International Journal of Molecular Sciences, 2020).

In assay [1] the target is T1, PDE1C (Homo sapiens, UniProt Q14123).
T1 construct: purchased SignalChem
In words: PDE-Glo assay, human recombinant PDE1C. It is filed as biochemical. The conditions noted are these: read-out: PDE-IC50 1C. How it is done: (§1) Inhibitory activities of the investigated compounds against various subtypes of human recombinant (hr)PDEs, namely PDE1A, PDE1B, PDE1C, PDE3A, PDE3B, PDE4A, PDE4B, PDE4D, PDE7A, and PDE8A were assessed using a PDE-Glo^TM Assay Kit (Promega, Madison, WI, USA) according to the protocol provided by the manufacturer. Briefly, appropriate amounts of each enzyme (SignalChem, Richmond, B.C., Canada), diluted with PDE-Glo reaction buffer, were distributed on a 384-well plate (Thermo Scientific, Waltham, MA, USA). The investigated compounds were dissolved in DMSO, diluted with the same vehicle, and mixed with the reaction buffer at a v/v ratio of 1:5. Thereafter, 1 µL of these mixtures and 2.5 µL of the cAMP solution as a substrate were added. The final cAMP concentration was 0.05 µM. The samples were incubated for 10 min at 30 °C. Then, 2.5 µL of termination buffer and 2.5 µL of PDE-Glo detection solution were added to each well and incubated for 20 min. Finally, 10 µL of PDE-Glo kinase reagent was added, and luminescence was measured using the POLARstar Omega plate reader (BMG LABTECH, Ortenberg, Germany). Each sample was prepared in quadruplicate. The relative activities (A, %) of all samples were calculated from the following equation: A = [(LUsample − LUblank)/(LUcontrol − LUblank)]·100%; where LUcontrol is the luminescence of a control sample in the absence of a PDE inhibitor, LUsample is a luminescence of an investigated sample in the presence of an inhibitor, and LUblank is a luminescence of a sample in the absence of enzyme (activity = 0). IC50 values were estimated using non-linear regression.

Assay [2] deals with T2, TRPA1 (Homo sapiens, UniProt O75762).
T2 construct: host or cells: HEK293
T2 sequence (O75762 whole entry, species assumed): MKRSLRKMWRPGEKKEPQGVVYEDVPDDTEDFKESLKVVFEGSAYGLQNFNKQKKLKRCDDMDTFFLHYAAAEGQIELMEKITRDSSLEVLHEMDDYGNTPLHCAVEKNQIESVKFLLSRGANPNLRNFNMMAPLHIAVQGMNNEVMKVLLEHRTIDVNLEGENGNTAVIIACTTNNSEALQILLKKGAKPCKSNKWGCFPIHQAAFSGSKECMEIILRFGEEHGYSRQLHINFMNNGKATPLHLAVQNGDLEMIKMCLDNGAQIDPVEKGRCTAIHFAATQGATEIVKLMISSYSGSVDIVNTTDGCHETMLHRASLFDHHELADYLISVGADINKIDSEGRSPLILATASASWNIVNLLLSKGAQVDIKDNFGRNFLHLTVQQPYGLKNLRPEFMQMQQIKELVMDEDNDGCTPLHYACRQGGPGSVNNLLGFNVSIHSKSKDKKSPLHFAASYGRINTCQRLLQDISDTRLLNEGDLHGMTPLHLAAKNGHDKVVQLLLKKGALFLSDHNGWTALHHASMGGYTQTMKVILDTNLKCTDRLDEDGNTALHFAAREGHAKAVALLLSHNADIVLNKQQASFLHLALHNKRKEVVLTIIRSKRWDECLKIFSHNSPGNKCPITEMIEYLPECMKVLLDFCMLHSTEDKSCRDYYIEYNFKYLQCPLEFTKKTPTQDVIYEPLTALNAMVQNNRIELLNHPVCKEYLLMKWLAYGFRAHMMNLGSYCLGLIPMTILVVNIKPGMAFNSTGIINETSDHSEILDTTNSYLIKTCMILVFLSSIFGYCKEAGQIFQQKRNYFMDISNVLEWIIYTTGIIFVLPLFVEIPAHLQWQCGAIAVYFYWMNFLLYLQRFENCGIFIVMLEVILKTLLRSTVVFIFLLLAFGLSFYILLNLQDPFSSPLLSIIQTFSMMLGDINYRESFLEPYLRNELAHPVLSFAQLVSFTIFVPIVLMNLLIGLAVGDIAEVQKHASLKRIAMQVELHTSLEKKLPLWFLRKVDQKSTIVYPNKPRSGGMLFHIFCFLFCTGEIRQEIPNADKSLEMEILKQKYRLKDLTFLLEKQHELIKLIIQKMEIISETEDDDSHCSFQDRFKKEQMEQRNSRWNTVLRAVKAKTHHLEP
The assay is described as follows: TRPA1 antagonist FLIPR assay (functional, HEK293 cell-based). The method, then: The TRPA1 agonist and antagonist fluorescent imaging plate reader (FLIPR) Assay (functional, HEK293 cell-based) was performed at Eurofins Panlabs, Inc. (St. Charles, MO, USA). The compounds were prepared in assay buffer to the final dilutions 10 and 50 µM. In each experiment, the respective reference compounds were tested: allyl isothiocyanate (the agonist assay) and ruthenium red (the antagonist assay). The […] assays were conducted on a FLIPR^TETRA instrument where the test compounds, vehicle controls, and reference agonists or antagonists were added to the assay plate after a fluorescence baseline was established. The agonist or antagonist incubation during the assay was for a total of 180 s and was used to assess each compound’s ability to activate or inactivate TRPA1. All plates were subjected to appropriate baseline corrections. Once baseline corrections were processed, maximum fluorescence values were exported, and data was manipulated to calculate percentage activation or percentage inhibition. Results showing activity greater than 25% were considered to represent significant effects of test compounds. Experiments were run three times, […].

In assay [3] the test system is MRC-5 cells. The assay is described as follows: cAMP ELISA. The assay is classed as cell-based, human. The conditions noted are these: 10 µM, 30 min. How it is done: MRC-5 cells were seeded in standard culture medium for 24 h and then serum-starved for 2 h in HBSS. The study compounds (10 µM) were added to the MRC-5 cultures and after 30 min of incubation, the intracellular cAMP level in cell lysates was measured using a colorimetric cAMP ELISA Kit according to the manufacturer’s protocol (Cell Biolabs, INC., San Diego, CA, USA). Obtained results were normalized to total protein content in each sample. The experiments were run two times in duplicates.
A general note: ELISA stands for enzyme-linked immunosorbent assay.

Assay [4] has as its system TGF-β1-induced MRC-5 cells. The assay is described as follows: Protein kinase A activity. As to conditions: 10 µM 30 min, then TGF-β1 30 min. It is filed as cell-based, human. The method, then:
Protein Kinase A (PKA) activity in MRC-5 cells was determined using a PKA Colorimetric Activity Kit (Invitrogen, Carlsbad, CA, USA) according to the manufacturer’s protocol. MRC-5 cells were seeded in standard culture medium, and after 48 h they were serum-starved for 2 h in HBSS, followed by the addition of study compounds (10 µM) and incubation for 30 min. Finally, TGF-β1 was administered, and the samples were incubated for an additional 30 min. Whole cell lysates were used in the assay. The amount of PKA was normalized to the total protein content in each sample. The experiments were run two times in duplicates.

The target of assay [5] is T3, PDE1B (Homo sapiens, UniProt Q01064).
T3 construct: purchased SignalChem
T3 sequence (Q01064 whole entry): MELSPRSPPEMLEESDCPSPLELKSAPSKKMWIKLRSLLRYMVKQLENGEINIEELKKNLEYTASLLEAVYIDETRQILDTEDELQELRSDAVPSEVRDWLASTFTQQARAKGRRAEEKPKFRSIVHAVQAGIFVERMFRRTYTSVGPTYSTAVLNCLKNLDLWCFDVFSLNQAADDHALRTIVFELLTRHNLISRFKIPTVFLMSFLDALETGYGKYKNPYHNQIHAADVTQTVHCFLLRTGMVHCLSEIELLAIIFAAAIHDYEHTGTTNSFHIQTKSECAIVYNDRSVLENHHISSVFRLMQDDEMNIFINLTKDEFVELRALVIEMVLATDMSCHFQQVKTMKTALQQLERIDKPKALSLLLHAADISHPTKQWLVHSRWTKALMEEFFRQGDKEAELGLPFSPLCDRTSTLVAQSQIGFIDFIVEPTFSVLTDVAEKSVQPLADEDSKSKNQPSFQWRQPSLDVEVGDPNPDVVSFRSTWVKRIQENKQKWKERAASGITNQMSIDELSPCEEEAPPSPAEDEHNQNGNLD
The arrangement: method as in PMID 31705904. As to conditions: published previously; read-out: PDE-IC50 1B; cited from earlier work.

The target in assay [6] is T4, PDE3A (Homo sapiens, UniProt Q14432).
T4 construct: purchased SignalChem
T4 sequence (Q14432 whole entry): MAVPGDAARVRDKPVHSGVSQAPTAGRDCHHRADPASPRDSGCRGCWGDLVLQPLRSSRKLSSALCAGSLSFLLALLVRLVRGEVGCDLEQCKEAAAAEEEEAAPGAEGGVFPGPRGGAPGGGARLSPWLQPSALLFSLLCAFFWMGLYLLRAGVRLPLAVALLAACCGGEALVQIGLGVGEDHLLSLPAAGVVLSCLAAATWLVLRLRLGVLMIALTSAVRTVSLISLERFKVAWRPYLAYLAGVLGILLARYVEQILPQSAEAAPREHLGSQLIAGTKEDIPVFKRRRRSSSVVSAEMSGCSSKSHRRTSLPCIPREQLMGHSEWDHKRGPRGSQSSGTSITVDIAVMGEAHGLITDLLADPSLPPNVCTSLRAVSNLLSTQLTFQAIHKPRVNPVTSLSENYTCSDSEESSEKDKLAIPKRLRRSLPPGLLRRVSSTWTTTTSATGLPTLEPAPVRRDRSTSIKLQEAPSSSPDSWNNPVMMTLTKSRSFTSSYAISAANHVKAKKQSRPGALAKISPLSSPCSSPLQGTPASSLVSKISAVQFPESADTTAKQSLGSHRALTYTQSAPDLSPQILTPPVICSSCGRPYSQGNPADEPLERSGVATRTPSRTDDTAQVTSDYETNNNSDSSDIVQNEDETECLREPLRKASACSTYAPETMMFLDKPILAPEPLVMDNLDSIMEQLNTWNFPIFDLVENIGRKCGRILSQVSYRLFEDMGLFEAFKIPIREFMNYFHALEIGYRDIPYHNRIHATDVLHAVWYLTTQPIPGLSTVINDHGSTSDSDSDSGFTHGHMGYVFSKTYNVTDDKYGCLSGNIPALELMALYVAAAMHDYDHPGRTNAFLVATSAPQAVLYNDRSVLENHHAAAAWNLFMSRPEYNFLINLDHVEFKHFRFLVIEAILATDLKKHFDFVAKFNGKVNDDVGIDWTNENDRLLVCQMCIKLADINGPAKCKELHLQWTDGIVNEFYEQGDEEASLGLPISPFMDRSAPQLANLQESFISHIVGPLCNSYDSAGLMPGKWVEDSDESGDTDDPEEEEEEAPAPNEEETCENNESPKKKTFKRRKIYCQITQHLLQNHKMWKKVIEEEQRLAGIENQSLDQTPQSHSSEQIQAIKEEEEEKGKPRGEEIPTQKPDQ
The arrangement: method as in PMID 31705904. The conditions noted are these: published previously; read-out: PDE-IC50 3A; cited from earlier work.

Assay [7] concerns the target PDE5A (Homo sapiens, UniProt O76074). The arrangement: method as in PMID 31705904. The conditions noted are these: published previously; read-out: PDE-IC50 5A; cited from earlier work.
For assay [8], the target named is T5, PDE1A (Homo sapiens, UniProt P54750).
T5 construct: purchased SignalChem
T5 sequence (P54750 whole entry): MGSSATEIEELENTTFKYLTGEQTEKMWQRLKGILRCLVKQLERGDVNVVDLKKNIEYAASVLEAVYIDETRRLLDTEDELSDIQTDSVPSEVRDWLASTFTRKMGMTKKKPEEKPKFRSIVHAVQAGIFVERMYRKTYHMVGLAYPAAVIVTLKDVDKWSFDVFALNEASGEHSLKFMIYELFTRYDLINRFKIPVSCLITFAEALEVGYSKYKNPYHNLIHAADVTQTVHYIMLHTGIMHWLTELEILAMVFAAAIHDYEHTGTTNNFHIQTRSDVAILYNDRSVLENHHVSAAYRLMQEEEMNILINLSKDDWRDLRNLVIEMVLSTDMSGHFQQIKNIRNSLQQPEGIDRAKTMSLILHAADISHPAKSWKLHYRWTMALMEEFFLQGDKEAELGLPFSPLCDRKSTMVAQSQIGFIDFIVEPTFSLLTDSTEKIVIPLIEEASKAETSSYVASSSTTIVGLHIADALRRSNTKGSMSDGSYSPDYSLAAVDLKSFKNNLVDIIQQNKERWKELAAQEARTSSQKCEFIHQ
The assay is described as follows: PDE-Glo assay, human recombinant PDE1A. It is filed as biochemical. The conditions noted are these: n.a. = not active; read-out: PDE-IC50 1A. The method, then:
as §1, with “Then, 2.5 µL of termination buffer and 2.5 µL of PDE-Glo detection solution were added to each well and incubated for 20 min.” left out, “Each sample was prepared in quadruplicate.” left out, “IC50 values were estimated using non-linear regression.” left out

T1 sequence (Q14123 whole entry): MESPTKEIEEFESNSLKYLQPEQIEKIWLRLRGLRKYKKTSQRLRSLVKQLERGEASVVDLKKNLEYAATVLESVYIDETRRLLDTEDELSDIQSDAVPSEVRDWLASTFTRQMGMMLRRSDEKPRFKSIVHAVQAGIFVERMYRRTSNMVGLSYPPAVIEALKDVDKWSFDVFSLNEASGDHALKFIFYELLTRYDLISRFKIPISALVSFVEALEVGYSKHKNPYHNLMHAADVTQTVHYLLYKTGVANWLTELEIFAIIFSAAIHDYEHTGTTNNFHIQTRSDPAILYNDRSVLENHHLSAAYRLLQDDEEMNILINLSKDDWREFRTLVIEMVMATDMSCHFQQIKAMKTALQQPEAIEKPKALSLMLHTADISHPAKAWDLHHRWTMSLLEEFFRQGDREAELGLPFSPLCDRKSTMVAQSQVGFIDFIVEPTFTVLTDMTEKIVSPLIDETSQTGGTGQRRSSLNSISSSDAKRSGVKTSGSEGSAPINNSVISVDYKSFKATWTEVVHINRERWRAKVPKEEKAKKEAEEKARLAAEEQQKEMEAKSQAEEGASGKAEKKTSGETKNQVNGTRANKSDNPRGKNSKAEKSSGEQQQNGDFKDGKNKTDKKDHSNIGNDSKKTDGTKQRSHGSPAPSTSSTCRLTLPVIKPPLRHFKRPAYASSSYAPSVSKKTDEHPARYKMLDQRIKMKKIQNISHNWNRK

With `CCCCOc1nc2c(c(=O)n(C)c(=O)n2C)n1CCCC(=O)Nc1cc(C(C)(C)C)ccc1O` [Compound 145, 4-(8-butoxy-1,3-dimethyl-2,6-dioxo-1,2,3,6-tetrahydro-7H-purin-7-yl)-N-(5-(tert-butyl)-2-hydroxyphenyl)butanamide], the IC50 in assay [1] is 48.5 µM; in assay [5], 2.69 µM; in assay [6], 0.18 µM; in assay [7] it was 104 µM. Also, the figures for the “TRPA1 Inhibition (% of control)” value in assay [2] (10 µM) and in assay [2] (50 µM) were 12.3 % of control and 4.8 % of control, respectively. Moreover, the “increase in cAMP level compared to control” value (“increase in cAMP level” below) in assay [3] came to 4.5 fold. Also, the cAMP level in assay [3] (control 508.87) is given as 2262.07 fmol/mL/mg of protein. In addition, the “Protein kinase A activity in TGF-β1-induced fibroblasts” value (from here on “Protein kinase A activity”) in assay [4] is given as “slightly lower”.
`Cn1c(=O)c2c(nc(NCc3ccco3)n2CCCC(=O)NN=Cc2ccc(O)cc2O)n(C)c1=O` [Compound 832, N′-(2,4-dihydroxybenzylidene)-4-(8-((furan-2-ylmethyl)amino)-1,3-dimethyl-2,6-dioxo-1,2,3,6-tetrahydro-7H-purin-7-yl)butanehydrazide]: the IC50 turned out to be 7.24 µM in assay [8] and 89.2 µM in assay [1]. The “TRPA1 Inhibition (% of control)” value in assay [2] (10 µM) is given as 12.4 % of control; in assay [2] (50 µM), 8.8 % of control. Besides, in assay [3], the “increase in cAMP level” value is reported as 2.16 fold. Also, in assay [4], the “Protein kinase A activity” value is “slightly lower”.
For the compound `COc1nc2c(c(=O)n(C)c(=O)n2C)n1CC(=O)Nc1ccc(C(C)(C)C)cc1` [Compound 869, N-(4-(tert-butyl)phenyl)-2-(8-methoxy-1,3-dimethyl-2,6-dioxo-1,2,3,6-tetrahydro-7H-purin-7-yl)acetamide], the IC50 in assay [1] is 172 µM. Also, the entries for the “TRPA1 Inhibition (% of control)” value in assay [2] (10 µM) and in assay [2] (50 µM) were 74.9 % of control and 98.7 % of control, respectively. Moreover, in assay [4], the “Protein kinase A activity” value is “no significant change”.
As for `CC(C)Cn1c(=O)n(C)c(=O)c2[nH]cnc21` [IBMX, 3-isobutyl-1-methyl-3,7-dihydro-1H-purine-2,6-dione, reference compound], the IC50 in assay [8] is 0.11 µM; in assay [1], 12.5 µM; in assay [5] it was 35.7 µM; in assay [6], 0.71 µM; in assay [7] it was 45.1 µM. In addition, the “increase in cAMP level” value in assay [3] is given as 2.53 fold. Further, the “Protein kinase A activity” value in assay [4] was “slightly lower”.

A word on the IC50: it is the concentration at which inhibition is half-maximal.
